Test results as given in publication PMC12040169 (PLOS Biology, 2025).

Assay: in vitro
Conditions: human, hela cells, % viability

| Structure (SMILES) | viability at 28.5 h, 10 µM [%] |
| --- | --- |
| Cc1cc(Br)ccc1C(=O)Nc1ccc2cc[nH]c2c1 [CBK160046] | 84.1 |
| C=CCNC(=O)N[C@H]1CCN2C(=O)c3ccccc3NC(=O)[C@@H]2C1 [CBK289568] | 102 |
| CC(=O)C1=C(O)C(=O)N(CCN2CCOCC2)C1c1cccc([N+](=O)[O-])c1 (centres unmarked) [CBK264568] | 98 |
| c1coc(-c2ccc3c(c2)COC2(CCN(CCc4ccc5c(c4)OCO5)CC2)O3)c1 [CBK061057] | 90.4 |
| S=c1nc(-c2ccccc2)n(-c2ccccc2)[nH]1 [CBK288474] | 103 |
| CN1CCN(C(=S)SCC(=O)O)CC1 [CBK261549C] | 92.8 |
| CCCn1nc(C)c(-c2cncn2CC(C)N2CCC(C)CC2)c1C (centres unmarked) [CBK281791] | 85.2 |
| Fc1ccc(COc2ccc(Cl)cc2CNCc2ccccn2)cc1 [CBK269899C] | 85.5 |
| Cc1cc(N(C)CCOc2ccccc2F)nc(N)n1 [CBK305969] | 79.6 |
| CCSc1nnc(NC(=O)c2cnc(SC)nc2CC)s1 [CBK291250] | 101 |
| COc1cccc(N2C(=O)N[C@@H]3CCN(S(=O)(=O)c4ccccc4)[C@@H]3C2=O)c1 [CBK289283] | 111 |
| Cc1ccc2[nH]c3c(c2c1)CC(NS(=O)(=O)c1c(N)noc1C)CC3 (centres unmarked) [CBK306270] | 86.6 |
| Cc1ccccc1N1CCN(C(=O)c2nn[nH]c2Nc2ccccc2F)CC1 [CBK288032] | 101 |
| NNC(=O)/C(=C\c1cccc([N+](=O)[O-])c1)NC(=O)c1ccc(Br)o1 [CBK262573] | 107 |
| CC(C)c1ccc(Cc2cnc(NC(=O)c3cc(Br)cs3)s2)cc1 [CBK300503] | 88.7 |
| COc1nccc(N2CCCC(CO)(CC3CC3)C2)c1C#N (centres unmarked) [CBK307553] | 89.3 |
| [N-]=[N+]=Nc1nc2c(N)ncnc2n1C1CC(O)C(CO)O1 (centres unmarked) [CBK201178] | 95.2 |
| CC(=O)Cc1ccccc1OCC(=O)O [CBK261031] | 90.9 |
| Cc1ccc(S(=O)(=O)N(C(=O)c2ccncc2)c2ccc(OC(=O)c3ccncc3)cc2)c(C)c1 [CBK265635] | 104 |
| CCN(CC)C(=O)C1CN2CCc3cc(OC)c(OC)cc3C2CC1OC(C)=O (centres unmarked) [CBK022778] | 110 |
| COc1ccc(C(=O)Nc2cc3ccccc3c(N3CCNCC3)n2)cc1 [CBK036344T] | 91.2 |
| C#CCNC(=O)CC[C@H]1CNC(=O)[C@@H]2[C@@H](CCN2Cc2ccccc2)N1C [CBK289034] | 101 |
| O=C(CN1CCOCC1)Nc1sc2c(c1C(=O)Nc1ccc(Cl)cc1)CCC2 [CBK265056] | 102 |

| Structure (SMILES) | viability at 28.5 h, 10 µM [%] |
| --- | --- |
| OCCN(CCO)CC1CC2C=CC1C2 (centres unmarked) [CBK261874] | 105 |
| O=C(CN(Cc1ccccc1Cl)S(=O)(=O)c1ccc(Cl)cc1)NC1CCCCC1 [CBK264659] | 97.5 |
| CN(C)CCn1nc(-c2cccc(-n3cccc3)c2)oc1=O [CBK284002] | 94.2 |
| C=CCN1C(=O)C2(CC(=O)N(CC)C2=O)c2cc(F)ccc21 (centres unmarked) [CBK075318] | 100 |
| Cc1ccc(SCCCCn2cnc3ccccc32)cc1 [CBK267801G] | 103 |
| Cn1cc([C@@H]2CN(Cc3cccs3)C[C@H]2N)c2ccncc21 [CBK285320] | 98.9 |
| O=C(NC(Cc1ccccc1)C(=O)O)c1ccc(C#CC2(O)CCCCC2)cc1 (centres unmarked) [CBK267702] | 93 |
| COc1cc2c(cc1OC)CN(CC1CCCCC1)CC2 [CBK138321] | 101 |
| O=C(O)c1cccc(NC(=O)C2CCCCC2C(=O)O)c1 (centres unmarked) [CBK261538] | 96.6 |
| O=C(c1nccc2ccccc12)N1CCN(Cc2ccccc2)CC1 [CBK200176] | 98 |
| Cc1ccccc1OCC(=O)Nc1c(C)n[nH]c1C [CBK266046C] | 106 |
| CC(=O)N1CCc2cc(C)ccc2C12CCN(CCCOc1ccccc1)CC2 [CBK081064] | 92.4 |
| Oc1cccc(Sc2cc(C(F)(F)F)ccn2)c1 [CBK115273] | 97.7 |
| Cn1cc(C(=O)NC(Cc2ccsc2)c2cccnc2)cn1 (centres unmarked) [CBK285118] | 99.9 |
| CC1CC(C)CN(C(=O)Cn2ncc3cccn3c2=O)C1 (centres unmarked) [CBK283805] | 81.2 |
| O=C(Oc1ccc(/C=N/c2ccc(O)c(-c3nc4ccccc4s3)c2)cc1)c1ccccc1Cl [CBK261241] | 89.9 |
| COC(=O)c1ccc(N/C(C)=C/C(=O)c2ccc(C)o2)cc1 [CBK267057] | 115 |
| CSCCC(NC(=O)c1ccc(S(=O)(=O)N2CC(C)OC(C)C2)cc1)C(=O)O (centres unmarked) [CBK297101] | 104 |
| CCCc1cc(O)nc(SC(C)C(=O)N2CCOCC2)n1 (centres unmarked) [CBK305030] | 86 |
| O=C(NCc1ccccc1)C1CCN(C(=O)Cc2c(F)cccc2Cl)CC1 [CBK297919] | 96.6 |
| O=C(c1cccs1)N(Cc1ccco1)Cc1cc2ccccc2[nH]c1=O [CBK269602] | 104 |
| O=C(CSc1ncnc2ccccc12)N(Cc1ccccc1F)C1CC1 [CBK295610] | 92.1 |
| CC1=NN(c2ccccc2)C(=O)C1C(=O)c1ccccc1 (centres unmarked) [CBK083564] | 99.3 |

| Structure (SMILES) | viability at 28.5 h, 10 µM [%] |
| --- | --- |
| O=C(O)C(CCCN1CCCC1)(c1ccccc1)c1ccccc1 [CBK022695G] | 81.7 |
| O=C(CCSc1ccccc1)Nc1ccccc1C(=O)N1CCCCC1 [CBK269545] | 87.3 |
| Nc1ccc2ccc(-c3cccc(C(F)(F)F)c3)nc2n1 [CBK067629] | 97.5 |
| O=C(Nc1ccc(S(=O)(=O)Nc2ccc(Cl)c(C(F)(F)F)c2)cc1)c1ccc(CN2CCOCC2)cc1 [CBK264777] | 104 |
| O=C(O)c1cccc2c1C(=O)C(CC1CCCO1)N2 (centres unmarked) [CBK287140] | 90.6 |
| O=C(c1ccc2c(c1)OCO2)N1CCN(C(=O)c2ccc(Cl)cc2F)CC1 [CBK296685] | 99 |
| Fc1ccc(CN(Cc2ccco2)C2CCN(c3ccc4c(c3)OCO4)CC2)cc1 [CBK286197] | 88.7 |
| CCC(C)(C)N1CC(=O)N=C1NCCc1ccc(S(N)(=O)=O)cc1 [CBK007750] | 89.6 |
| O=C(CCn1c(C(F)(F)F)cc2cccnc21)N1CCC(O)CC1 [CBK284887] | 89.7 |
| FC(F)(F)c1[nH]c2ncccc2c1CN1CCN2CCCCC2C1 (centres unmarked) [CBK285355] | 80.9 |
| CCn1cc(-c2cncn2CC(C)N2CCC(C)CC2)cn1 (centres unmarked) [CBK281565] | 91.7 |
| O=C(O)CCCn1c(=O)c2cc3c(=O)n(CCCC(=O)O)c(=O)c3cc2c1=O [CBK265748] | 93.1 |
| Cc1cc(CN2CCC(C(=O)c3ccc(F)cc3)CC2)no1 [CBK149121] | 89.2 |
| C=C(C)CNC(=O)c1cc(-c2cccc(NC(C)=O)c2)cnc1N(C)S(C)(=O)=O [CBK076622] | 93.9 |
| CCOc1ccc(/N=C2/SC(C(=O)O)CC(=O)N2Cc2ccc3c(c2)OCO3)cc1 (centres unmarked) [CBK263296] | 93.3 |
| COc1ccc(-c2cc(=O)oc3cc(OC(C)C(=O)O)ccc23)cc1 (centres unmarked) [CBK286696] | 105 |
| Cc1nc(C2CCN(C(=O)C3CCC3)CC2)nc2c1CCCN2CCc1ccccc1 [CBK285645] | 97.3 |
| O=C(CSc1nnc(-c2ccccc2O)n1Cc1ccccc1)NC12CC3CC(CC(C3)C1)C2 [CBK266075] | 88.9 |
| Cc1cc(CN(C)C(=O)Cc2csc(NC(=O)c3ccoc3C)n2)no1 [CBK305779] | 102 |
| CCc1nc2ccc(C(=O)Nc3cccc(NS(C)(=O)=O)c3)cn2c1N(C)CCCc1ccccc1 [CBK146670] | 101 |
| COCCn1cnnc1CN(C)C(=O)NCc1cc2ccccc2s1 [CBK306911] | 98.6 |
| Cc1ccc2nc(-c3ccccc3)c(CC(=O)O)c(C(=O)O)c2c1 [CBK265128] | 87.3 |
| COc1ccc(C2OCCN2C(C)=O)cc1 (centres unmarked) [CBK004536] | 80.8 |

| Structure (SMILES) | viability at 28.5 h, 10 µM [%] |
| --- | --- |
| COc1ccc(CN(C)c2c(C)nc3c(OCC(=O)C(C)(C)C)cccn23)cc1 [CBK147458] | 100 |
| CN(CC(=O)O)C(=O)OCc1ccccc1 [CBK012752] | 101 |
| COCCN(CC1CC1)C(=O)NCc1cccc(Cl)c1 [CBK304368] | 93.4 |
| COc1ccc(-c2cc(C(=O)OCC(=O)c3cccc4ccccc34)c3ccccc3n2)cc1 [CBK265513] | 96.7 |
| O=C(Cc1ccccc1)Nc1nnc(Cc2ccc3c(c2)OCCO3)o1 [CBK287661] | 94.2 |
| Clc1ccc(COc2nccnc2OC2CCN(CCOc3ccccc3)CC2)cc1Cl [CBK083121T] | 95.9 |
| COc1cc2c(cc1CNS(=O)(=O)c1ccc3[nH]c(=O)[nH]c(=O)c3c1)CCC2 [CBK286396] | 98.7 |
| O=C(NCCCCn1ccnc1)c1noc2c1CCCC2 [CBK283208] | 93.9 |
| COC(=O)CNC(=O)CNS(=O)(=O)c1ccc(C(C)=O)cc1 [CBK044117] | 89.1 |
| O=c1[nH]c(=O)c2cc(S(=O)(=O)N3CCCCC3CN3CCCCC3)ccc2[nH]1 (centres unmarked) [CBK286393] | 83.5 |
| O=C(CCN1C(=O)/C(=C\C=C\c2ccccc2)SC1=S)Nc1ccc(C(=O)O)cc1 [CBK264818] | 104 |
| CC(C)C(=O)N1CCCc2cc(C(O)CN3CCCCC3)ccc21 (centres unmarked) [CBK282127] | 104 |
| CC(=O)Nc1ccc(/C(C)=N/Nc2nc(N3CCCC3)nc(N3CCCC3)n2)cc1 [CBK021877] | 89.3 |
| NC[C@H]1CC[C@H](C(=O)N2CCC(c3ccncc3)CC2)CC1 [CBK283332] | 110 |
| COc1cc(C=Cc2cc(C(=O)O)c3ccccc3n2)cc(Cl)c1OC(C)C [CBK296941] | 93.7 |
| Cc1ccc2nc(NC(=O)c3cc(C)n(C)n3)sc2c1 [CBK287668] | 83.9 |
| CCCNc1nccnc1-c1cc(C)c(O)c(C)c1 [CBK037210] | 87.6 |
| O=C(Cc1ccc(F)cc1F)N1CCC(Sc2ccc(-c3ccccc3)cc2)CC1 [CBK131950] | 105 |
| Cc1cc(COC(=O)N2CCCC(F)(F)C2)cc(C)n1 [CBK200151] | 125 |
| Oc1cccc(OCCOc2nc3ccccc3nc2N2CCCC2)c1 [CBK115901] | 84.1 |
